Measured values reported in PubChem BioAssay AID328 (DTP/NCI, 2004).
Values joined by “and” are separate entries in the source; they are usually repeats but may differ in a detail not shown here. Identical values can stand only once. Inconclusive results and toxic doses are left out.

Tested on: BDF1 mice, P388 leukemia ip, median survival T/C
Experiment: NCI In Vivo Anticancer Drug Screen. Data for tumor model P388 Leukemia (intraperitoneal) in B6D2F1 (BDF1) mice
Settings: endpoint: median survival time, higher = longer survival
Method in brief: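 Reported as T/C, where T is the survival measurement in dosed animals and C the same measurement in vehicle controls.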

[1] = dose: 1.56 mg/kg/injection, schedule: Q01DX009 (ip), vehicle: saline
[2] = dose: 3.12 mg/kg/injection, schedule: Q01DX009 (ip), vehicle: saline

## C=CCO
dose: 12.5 mg/kg/injection, schedule: Q01DX001 (ip), vehicle: saline with Tween-80
  T/C: 95 % of control
dose: 25.0 mg/kg/injection, schedule: Q01DX001 (ip), vehicle: saline with Tween-80
  T/C: 104 % of control
dose: 50.0 mg/kg/injection, schedule: Q01DX001 (ip), vehicle: saline with Tween-80
  T/C: 100 % of control

## COc1cc2c(c(OC)c1OC)-c1ccc(OC)c(=O)cc1[C@@H](N)CC2
dose: 1.25 mg/kg/injection, schedule: Q01DX009 (ip), vehicle: water
  T/C: 120 % of control
dose: 2.0 mg/kg/injection, schedule: Q01DX010 (ip), vehicle: water
  T/C: 160 % of control
dose: 5.0 mg/kg/injection, schedule: Q01DX009 (ip), vehicle: water
  T/C: 94 % of control
dose: 20.0 mg/kg/injection, schedule: Q04DX003 (ip), vehicle: Klucel (hydroxypropylcellulose) (HPC)
  T/C: 176 % of control
dose: 30.0 mg/kg/injection, schedule: Q04DX003 (ip), vehicle: Klucel (hydroxypropylcellulose) (HPC)
  T/C: 98 % of control
dose: 45.0 mg/kg/injection, schedule: Q04DX003 (ip), vehicle: Klucel (hydroxypropylcellulose) (HPC)
  T/C: 89 % of control

## Cc1cccc(-c2nc3cc(Cl)ccc3c(=O)o2)c1
dose: 50.0 mg/kg/injection, schedule: Q01DX009 (ip), vehicle: Klucel (hydroxypropylcellulose) (HPC)
  T/C: 104 % of control
dose: 50.0 mg/kg/injection, schedule: Q04DX003 (ip), vehicle: Klucel (hydroxypropylcellulose) (HPC)
  T/C: 95 % of control
dose: 100.0 mg/kg/injection, schedule: Q01DX009 (ip), vehicle: Klucel (hydroxypropylcellulose) (HPC)
  T/C: 109 % of control
dose: 100.0 mg/kg/injection, schedule: Q04DX003 (ip), vehicle: Klucel (hydroxypropylcellulose) (HPC)
  T/C: 100 % of control
dose: 200.0 mg/kg/injection, schedule: Q04DX003 (ip), vehicle: Klucel (hydroxypropylcellulose) (HPC)
  T/C: 95 % of control

## COc1ccc(C(=O)/C=C/c2ccccc2)c(O)c1CC=C(C)C
dose: 1.25 mg/kg/injection, schedule: Q01DX009 (ip), vehicle: Klucel (hydroxypropylcellulose) (HPC)
  T/C: 114 % of control
dose: 2.5 mg/kg/injection, schedule: Q01DX009 (ip), vehicle: Klucel (hydroxypropylcellulose) (HPC)
  T/C: 118 % of control
dose: 5.0 mg/kg/injection, schedule: Q01DX009 (ip), vehicle: Klucel (hydroxypropylcellulose) (HPC)
  T/C: 91 % of control
dose: 10.0 mg/kg/injection, schedule: Q01DX009 (ip), vehicle: Klucel (hydroxypropylcellulose) (HPC)
  T/C: 91 % of control
dose: 20.0 mg/kg/injection, schedule: Q01DX009 (ip), vehicle: Klucel (hydroxypropylcellulose) (HPC)
  T/C: 95 % of control
dose: 40.0 mg/kg/injection, schedule: Q01DX009 (ip), vehicle: Klucel (hydroxypropylcellulose) (HPC)
  T/C: 91 % of control

## O=C1C(=C(C(F)(F)F)C(F)(F)F)C2CCC1C2 (stereo not given)
dose: 6.25 mg/kg/injection, schedule: Q04DX003 (ip), vehicle: saline with Tween-80
  T/C: 110 % of control
dose: 12.5 mg/kg/injection, schedule: Q04DX003 (ip), vehicle: saline with Tween-80
  T/C: 100 % of control
dose: 25.0 mg/kg/injection, schedule: Q04DX003 (ip), vehicle: saline with Tween-80
  T/C: 90 % of control

## CC(C)(C)C1CC[N-]CC1.CC(C)(C)C1CC[N-]CC1.[Cl][Pt+2]([Cl])([Cl])[Cl]
dose: 0.78 mg/kg/injection, schedule: Q01DX009 (ip), vehicle: saline
  T/C: 110 % of control
[1]
  T/C: 115 % of control and 117 % of control
[2]
  T/C: 100 % of control and 102 % of control and 111 % of control
dose: 6.25 mg/kg/injection, schedule: Q01DX009 (ip), vehicle: saline
  T/C: 86 % of control and 108 % of control
dose: 12.5 mg/kg/injection, schedule: Q01DX009 (ip), vehicle: saline
  T/C: 115 % of control
dose: 25.0 mg/kg/injection, schedule: Q01DX009 (ip), vehicle: saline
  T/C: 91 % of control and 115 % of control

## Cc1oc(-c2ccccc2)nc1C(C)(O)c1ccccc1 (stereo not given)
dose: 100.0 mg/kg/injection, schedule: Q04DX002 (ip), vehicle: saline with Tween-80
  T/C: 118 % of control
dose: 200.0 mg/kg/injection, schedule: Q04DX002 (ip), vehicle: saline with Tween-80
  T/C: 103 % of control
dose: 400.0 mg/kg/injection, schedule: Q04DX002 (ip), vehicle: saline with Tween-80
  T/C: 112 % of control

## CNNC(=O)NC
dose: 2.06 mg/kg/injection, schedule: Q01DX009 (ip), vehicle: saline
  T/C: 108 % of control
dose: 4.12 mg/kg/injection, schedule: Q01DX009 (ip), vehicle: saline
  T/C: 116 % of control
dose: 8.25 mg/kg/injection, schedule: Q01DX009 (ip), vehicle: saline
  T/C: 91 % of control
dose: 35.0 mg/kg/injection, schedule: Q04DX003 (ip), vehicle: saline
  T/C: 109 % of control
dose: 55.0 mg/kg/injection, schedule: Q04DX003 (ip), vehicle: saline
  T/C: 113 % of control
dose: 80.0 mg/kg/injection, schedule: Q04DX003 (ip), vehicle: saline
  T/C: 118 % of control
dose: 120.0 mg/kg/injection, schedule: Q04DX003 (ip), vehicle: saline
  T/C: 109 % of control
dose: 180.0 mg/kg/injection, schedule: Q04DX003 (ip), vehicle: saline
  T/C: 113 % of control
dose: 270.0 mg/kg/injection, schedule: Q04DX003 (ip), vehicle: saline
  T/C: 109 % of control

## C=C(C)CSC(=S)NNc1ccccc1
dose: 37.5 mg/kg/injection, schedule: Q04DX003 (ip), vehicle: acetone
  T/C: 109 % of control
dose: 56.25 mg/kg/injection, schedule: Q01DX009 (ip), vehicle: Klucel (hydroxypropylcellulose) (HPC)
  T/C: 115 % of control
dose: 75.0 mg/kg/injection, schedule: Q04DX003 (ip), vehicle: acetone
  T/C: 100 % of control
dose: 100.0 mg/kg/injection, schedule: Q01DX001 (ip), vehicle: alcohol
  T/C: 100 % of control
dose: 112.5 mg/kg/injection, schedule: Q01DX009 (ip), vehicle: Klucel (hydroxypropylcellulose) (HPC)
  T/C: 110 % of control
dose: 150.0 mg/kg/injection, schedule: Q01DX009 (ip), vehicle: Klucel (hydroxypropylcellulose) (HPC)
  T/C: 115 % of control
dose: 150.0 mg/kg/injection, schedule: Q01DX009 (ip), vehicle: alcohol
  T/C: 109 % of control
dose: 150.0 mg/kg/injection, schedule: Q04DX003 (ip), vehicle: acetone
  T/C: 104 % of control
dose: 200.0 mg/kg/injection, schedule: Q01DX001 (ip), vehicle: alcohol
  T/C: 104 % of control
dose: 225.0 mg/kg/injection, schedule: Q01DX009 (ip), vehicle: Klucel (hydroxypropylcellulose) (HPC)
  T/C: 115 % of control
dose: 225.0 mg/kg/injection, schedule: Q04DX003 (ip), vehicle: alcohol
  T/C: 100 % of control
dose: 335.0 mg/kg/injection, schedule: Q01DX009 (ip), vehicle: Klucel (hydroxypropylcellulose) (HPC)
  T/C: 115 % of control
dose: 340.0 mg/kg/injection, schedule: Q04DX003 (ip), vehicle: alcohol
  T/C: 95 % of control

## CC(=O)c1cccc(OCC(O)CN(C(C)C)C(C)C)c1 (stereo not given)
dose: 100.0 mg/kg/injection, schedule: Q04DX003 (ip), vehicle: saline
  T/C: 104 % of control
dose: 200.0 mg/kg/injection, schedule: Q04DX003 (ip), vehicle: saline
  T/C: 109 % of control

## CNC(=S)/N=C(\N)n1nc(C)cc1C
dose: 15.0 mg/kg/injection, schedule: Q01DX009 (ip), vehicle: saline with Tween-80
  T/C: 104 % of control
dose: 30.0 mg/kg/injection, schedule: Q01DX009 (ip), vehicle: saline with Tween-80
  T/C: 112 % of control
dose: 60.0 mg/kg/injection, schedule: Q01DX009 (ip), vehicle: saline with Tween-80
  T/C: 112 % of control

## Ic1ncnc2c1ncn2C1CCCO1 (stereo not given)
dose: 44.0 mg/kg/injection, schedule: Q01DX009 (ip), vehicle: saline sonified
  T/C: 100 % of control
dose: 66.0 mg/kg/injection, schedule: Q01DX009 (ip), vehicle: saline sonified
  T/C: 123 % of control
dose: 100.0 mg/kg/injection, schedule: Q01DX009 (ip), vehicle: saline sonified
  T/C: 114 % of control
dose: 100.0 mg/kg/injection, schedule: Q04DX003 (ip), vehicle: saline sonified
  T/C: 115 % of control
dose: 150.0 mg/kg/injection, schedule: Q01DX009 (ip), vehicle: saline sonified
  T/C: 114 % of control
dose: 200.0 mg/kg/injection, schedule: Q01DX009 (ip), vehicle: saline sonified
  T/C: 122 % of control
dose: 200.0 mg/kg/injection, schedule: Q04DX003 (ip), vehicle: saline sonified
  T/C: 120 % of control
dose: 400.0 mg/kg/injection, schedule: Q01DX009 (ip), vehicle: saline sonified
  T/C: 100 % of control
dose: 400.0 mg/kg/injection, schedule: Q04DX003 (ip), vehicle: saline sonified
  T/C: 105 % of control

## NCc1cn(C2OC(CO)C(O)C2O)c2ncnc(N)c12 (stereo not given)
[1]
  T/C: 91 % of control and 99 % of control
[2]
  T/C: 100 % of control and 123 % of control
dose: 3.12 mg/kg/injection, schedule: Q04DX003 (ip), vehicle: saline
  T/C: 95 % of control
dose: 6.25 mg/kg/injection, schedule: Q04DX003 (ip), vehicle: saline
  T/C: 91 % of control

## NC(CC(=O)O)c1nn[nH]n1 (stereo not given)
dose: 100.0 mg/kg/injection, schedule: Q01DX009 (ip), vehicle: saline with Tween-80
  T/C: 95 % of control
dose: 200.0 mg/kg/injection, schedule: Q01DX009 (ip), vehicle: saline with Tween-80
  T/C: 95 % of control
dose: 400.0 mg/kg/injection, schedule: Q01DX009 (ip), vehicle: saline with Tween-80
  T/C: 100 % of control
